From publication PMC9080739 (2018)

How the values were obtained:
[1] = system: dA21 (DNA, single strand) AAAAAAAAAAAAAAAAAAAAA; test: fluorescence enhancement; conditions: K+ 60 mM; Tris-HCl pH 7.4; ligand 5 μM
[2] = system: telo21 (DNA, G4) GGGTTAGGGTTAGGGTTAGGG; test: fluorescence titration; conditions: K+ 60 mM; 10 mM Tris-HCl pH 7.4; ligand 5 μM
[3] = system: ds26 (DNA, duplex) CAATCGGATCGAATTCGATCCGATTG; test: fluorescence enhancement; conditions: K+ 60 mM; Tris-HCl pH 7.4; ligand 5 μM

| binding [1] | K [2] | binding [3] | SMILES |
| --- | --- | --- | --- |
| weak | 1.44 ± 0.35 × 10^5 M^-1 | weak | CN(C)c1ccc(/C=C/c2cccc(/C=C/c3ccc(N(C)C)cc3)[n+]2C)cc1 |
| – | 1.18 ± 0.21 × 10^5 M^-1 | – | CSc1ccc(/C=C/c2cccc(/C=C/c3ccc(SC)cc3)[n+]2C)cc1 |
